Biological target: T1, α-amylase (hog pancreas) (Sus scrofa, UniProt P00690)
T1 construct: gene AMY2
T1 sequence (P00690 16-511): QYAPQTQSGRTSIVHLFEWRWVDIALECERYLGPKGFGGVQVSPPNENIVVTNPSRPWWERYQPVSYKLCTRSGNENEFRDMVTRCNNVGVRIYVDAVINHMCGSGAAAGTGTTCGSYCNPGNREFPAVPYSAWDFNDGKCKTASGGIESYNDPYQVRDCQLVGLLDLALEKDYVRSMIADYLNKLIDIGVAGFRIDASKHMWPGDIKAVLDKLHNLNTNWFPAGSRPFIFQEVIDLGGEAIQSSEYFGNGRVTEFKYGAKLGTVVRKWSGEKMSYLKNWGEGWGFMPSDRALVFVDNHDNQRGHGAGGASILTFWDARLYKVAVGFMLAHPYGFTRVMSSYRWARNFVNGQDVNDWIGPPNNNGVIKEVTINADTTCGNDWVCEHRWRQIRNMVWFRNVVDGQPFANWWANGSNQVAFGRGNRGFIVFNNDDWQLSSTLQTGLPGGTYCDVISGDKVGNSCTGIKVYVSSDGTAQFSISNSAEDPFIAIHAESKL
Assay: DNS starch hydrolysis assay with hog pancreas α-amylase; Lineweaver–Burk, Dixon and Eisenthal–Cornish-Bowden kinetics
Type: biochemical

IC50: 69.4 µM
Compound: O=C(/C=C/c1ccc(O)cc1)O[C@@H]1CC(O)(C(=O)O)C[C@@H](O)C1O (stereo partly shown) [5-CQA, 5-O-p-coumaroylquinic acid]
